Experimental data from ChEMBL document CHEMBL1124667 (1989).

How the values were obtained:
MCF7 [1] = assay: Growth inhibitory activity against MCF-7 human breast tumor cell line at a concentration of 10e-8 M in vitro.; type: functional; parameters: scale not given: the % may be the effect or the level left
MCF7 [2] = assay: Growth inhibitory activity against MCF-7 human breast tumor cell line at a concentration of 10e-6 M in vitro.; type: functional; parameters: scale not given: the % may be the effect or the level left
MCF7 [3] = assay: Growth inhibitory activity against MCF-7 human breast tumor cell line at a concentration of 10e-7 M in vitro.; type: functional; parameters: scale not given: the % may be the effect or the level left
[4] = target: Estrogen receptor (Homo sapiens) (UniProt Q92731+P03372); assay: Relative binding affinity against estrogen receptors in MCF-7 whole cells; type: cell-based; conditions: MCF7

| relative binding affinity (RBA) [4] | Structure (SMILES) | Activity (MCF7 [1]) [%] | Activity (MCF7 [2]) [%] | Activity (MCF7 [3]) [%] |
| --- | --- | --- | --- | --- |
| – | CC/C(=C(/c1ccc(OCCN(C)C)cc1)c1ccc([S+](C)[O-])cc1)c1ccccc1 (centres undefined) | 177 | 238 | 237 |
| – | CC/C(=C(/c1ccc(OCCN(C)C)cc1)c1ccc(C2CO2)cc1)c1ccccc1 (centres undefined) | 113 | 19 | 42 |
| – | CC/C(=C(/c1ccc(OCCN(C)C)cc1)c1cccc(I)c1)c1ccccc1 | 100 | 27 | 68 |
| – | CC/C(=C(\c1ccccc1)c1ccc(OCCN(C)C)cc1)c1ccccc1 [TAMOXIFEN] | 119 | 70 | 100 |
| – | CC/C(=C(/c1ccc(I)cc1)c1ccc(OCCN(C)C)cc1)c1ccccc1 | 99 | 120 | 126 |
| 1.5 | CC/C(=C(\c1ccc(CO)cc1)c1ccc(OCCN(C)C)cc1)c1ccccc1 | 164 | 150 | 145 |
| – | CC/C(=C(\c1ccc(I)cc1)c1ccc(OCCN2CCCC2)cc1)c1ccccc1 [IDOXIFENE] | 84 | 20 | 27 |
| – | CC/C(=C(\c1ccc(S)cc1)c1ccc(OCCN(C)C)cc1)c1ccccc1 | 94 | 147 | 110 |
| – | CC/C(=C(\c1ccc(C=O)cc1)c1ccc(OCCN(C)C)cc1)c1ccccc1 | 62 | 42 | 38 |
| – | CC/C(=C(\c1ccc(OCCN(C)C)cc1)c1ccc([S+](C)[O-])cc1)c1ccccc1 (centres undefined) | 112 | 67 | 135 |
| – | CC/C(=C(\c1ccc(OCCN(C)C)cc1)c1ccc(S(C)(=O)=O)cc1)c1ccccc1 | 88 | 140 | 114 |
| – | CC/C(=C(\c1ccc(OCCN(C)C)cc1)c1ccc(SC)cc1)c1ccccc1 | 102 | 69 | 117 |
| – | CC/C(=C(\c1ccc(Br)cc1)c1ccc(OCCN(C)C)cc1)c1ccccc1 | 130 | 63 | 101 |
| – | CC/C(=C(\c1ccc(I)cc1)c1ccc(OCCN(CC)CC)cc1)c1ccccc1 | 101 | 23 | 35 |
| – | CC/C(=C(/c1ccc(OCCN(C)C)cc1)c1ccc(SC)cc1)c1ccccc1 | 154 | 54 | 66 |
| – | CC/C(=C(\c1ccc(Cl)cc1)c1ccc(OCCN(C)C)cc1)c1ccccc1 | 116 | 56 | 119 |
| – | CC/C(=C(/c1ccc(OCCN(C)C)cc1)c1ccc(S(C)(=O)=O)cc1)c1ccccc1 | 125 | 29 | 75 |
| – | CC/C(=C(/c1ccccc1)c1ccc(OCCN(C)C)cc1)c1ccccc1 | 135 | 137 | 140 |
| – | CC/C(=C(/c1ccc(Br)cc1)c1ccc(OCCN(C)C)cc1)c1ccccc1 | 110 | 174 | 163 |
| – | CCC(=C(c1ccc(O)cc1)c1ccc(OCCN(C)C)cc1)c1ccccc1 | 48 | 15 | 38 |
| – | CC/C(=C(\c1ccc(I)cc1)c1ccc(OCCN(C)C)cc1)c1ccccc1 | 115 | 26 | 42 |
